Data as given in patent publication US10294202B2, “Pyrrolidinones as herbicides” (FMC Corporation, priority 2013, dated 2019).

Legend:
lambsquarters = test: Test C pre-/postemergence herbicide test; type: in vivo, Chenopodium album
Outline: (§1)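 Greenhouse pots; formulation = non-phytotoxic solvent mix + surfactant. PRE onto seeds in loam:sand; POST at 1–4 leaves (2–18 cm) in peat moss/vermiculite medium. Read-out: visual % control vs untreated, day 13–15.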

waterhemp = test: Test C pre-/postemergence herbicide test; type: in vivo, Amaranthus rudis
Outline: as §1

morningglory = test: Test C pre-/postemergence herbicide test; type: in vivo, Ipomoea coccinea
Outline: as §1

giant foxtail = test: Test A pre-/postemergence herbicide test; type: in vivo, Setaria faberii
Outline: (§2)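 Greenhouse pot test with pre- and postemergence application of surfactant-containing solvent formulations. Postemergence plants were 2–10 cm, one- to two-leaf stage. Response scored visually after ~10 days, 0 (no effect) to 100 (complete control).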

foxtail, giant = test: Test C pre-/postemergence herbicide test; type: in vivo, Setaria faberii
Outline: as §1

barnyardgrass [1] = test: Test C pre-/postemergence herbicide test; type: in vivo, Echinochloa crus-galli
Outline: as §1

galium = test: Test C pre-/postemergence herbicide test; type: in vivo, Galium aparine; details: Preemergence
Outline: as §1

crabgrass, large = test: Test C pre-/postemergence herbicide test; type: in vivo, Digitaria sanguinalis
Outline: as §1

oat, wild = test: Test C pre-/postemergence herbicide test; type: in vivo, Avena fatua; details: Postemergence
Outline: as §1

velvetleaf = test: Test C pre-/postemergence herbicide test; type: in vivo, Abutilon theophrasti
Outline: as §1

pigweed = test: Test A pre-/postemergence herbicide test; type: in vivo, Amaranthus retroflexus
Outline: as §2

barnyardgrass [2] = test: Test A pre-/postemergence herbicide test; type: in vivo, Echinochloa crus-galli
Outline: as §2

[3] = Postemergence, 31 g ai/ha, scale 0 to 100 (0 no effect, 100 complete control)
[4] = Postemergence, 62 g ai/ha, scale 0 (no effect) to 100 (complete control)
[5] = Postemergence, 125 g ai/ha, scale 0 to 100 (0 no effect, 100 complete control)
[6] = Postemergence, 250 g ai/ha, scale 0 to 100 (0 no effect, 100 complete control)
[7] = Preemergence, 31 g ai/ha, scale 0 to 100, 0 is no effect and 100 is complete control
[8] = Preemergence, 62 g ai/ha, scale 0 to 100 (0 no effect, 100 complete control)
[9] = Preemergence, 125 g ai/ha, scale 0 to 100
[10] = Postemergence, 125 g ai/ha, visual rating on 0 to 100 scale (0 no effect, 100 complete control), approx. 10 days
[11] = Postemergence, 500 g ai/ha, 0 to 100 scale (0 no effect, 100 complete control)
[12] = Preemergence, 125 g ai/ha, 0 to 100 scale where 0 is no effect and 100 is complete control
[13] = Preemergence, 500 g ai/ha, visual rating on 0 to 100 scale (0 no effect, 100 complete control)

Structure (SMILES): O=C1NCC(c2cccc(OC(F)F)c2)C1C(=O)Nc1cccc(F)c1F (stereo not drawn) [Compound 324]
- Plant response rating, Lambsquarters (lambsquarters; [3]): 0
- Plant response rating, Lambsquarters (lambsquarters; [4]): 55
- Plant response rating, Lambsquarters (lambsquarters; [5]): 70
- Plant response rating, Lambsquarters (lambsquarters; [6]): 65
- Lambsquarters plant response rating (lambsquarters; [7]): 50
- Lambsquarters plant response rating (lambsquarters; [8]): 70
- Plant response rating, Lambsquarters (lambsquarters; [9]): 80
- Plant response rating (scale of 0 to 100), Lambsquarters (lambsquarters; Preemergence, 250 g ai/ha): 85
- Plant response rating, Waterhemp (waterhemp; [3]): 0
- Plant response rating, Waterhemp (waterhemp; [4]): 10
- Plant response rating, Waterhemp (waterhemp; [5]): 20
- Plant response rating, Waterhemp (waterhemp; [6]): 40
- Waterhemp plant response rating (waterhemp; [8]): 70
- Plant response rating, Waterhemp (waterhemp; [9]): 80
- Plant response rating, Morningglory (morningglory; [3]): 10
- Plant response rating, Morningglory (morningglory; [4]): 5
- Plant response rating, Morningglory (morningglory; [5]): 10
- Plant response rating, Morningglory (morningglory; [6]): 15
- Morningglory plant response rating (morningglory; [7]): 0
- Morningglory plant response rating (morningglory; [8]): 0
- Plant response rating, Morningglory (morningglory; [9]): 35
- Plant response rating (scale of 0 to 100), Morningglory (morningglory; Preemergence, 250 g ai/ha): 55
- Plant response rating, Foxtail, Giant (giant foxtail; [10]): 90
- Plant response rating, Foxtail, Giant (giant foxtail; [11]): 90
- Plant response rating, Foxtail, Giant (giant foxtail; [12]): 90
- Foxtail, Giant plant response rating (giant foxtail; [13]): 90
- Plant response rating, Foxtail, Giant (foxtail, giant; [3]): 0
- Plant response rating, Foxtail, Giant (foxtail, giant; [4]): 10
- Plant response rating, Foxtail, Giant (foxtail, giant; [5]): 75
- Plant response rating, Foxtail, Giant (foxtail, giant; [6]): 60
- Foxtail, Giant plant response rating (foxtail, giant; [7]): 90
- Foxtail, Giant plant response rating (foxtail, giant; [8]): 90
- Plant response rating, Foxtail, Giant (foxtail, giant; [9]): 95
- Plant response rating (scale of 0 to 100), Foxtail, Giant (foxtail, giant; Preemergence, 250 g ai/ha): 95
- Plant response rating, Barnyardgrass (barnyardgrass [1]; [3]): 0
- Plant response rating, Barnyardgrass (barnyardgrass [1]; [4]): 35
- Plant response rating, Barnyardgrass (barnyardgrass [1]; [5]): 55
- Plant response rating, Barnyardgrass (barnyardgrass [1]; [6]): 65
- Barnyardgrass plant response rating (barnyardgrass [1]; [7]): 90
- Barnyardgrass plant response rating (barnyardgrass [1]; [8]): 95
- Plant response rating, Barnyardgrass (barnyardgrass [1]; Preemergence, 125 g ai/ha, scale 0 to 100 (0 no effect, 100 complete control)): 95
- Plant response rating (scale of 0 to 100; 0 is no effect, 100 is complete control), Barnyardgrass (barnyardgrass [1]; Preemergence, 250 g ai/ha): 98
- Galium plant response rating (galium; 31 g ai/ha, scale 0 to 100, 0 is no effect and 100 is complete control): 0
- Galium plant response rating (galium; 62 g ai/ha, scale 0 to 100 (0 no effect, 100 complete control)): 60
- Plant response rating, Galium (galium; 125 g ai/ha, scale 0 to 100): 85
- Plant response rating (scale of 0 to 100), Galium (galium; 250 g ai/ha): 85
- Plant response rating, Crabgrass, Large (crabgrass, large; [3]): 25
- Plant response rating, Crabgrass, Large (crabgrass, large; [4]): 60
- Plant response rating, Crabgrass, Large (crabgrass, large; [5]): 70
- Plant response rating, Crabgrass, Large (crabgrass, large; [6]): 75
- Crabgrass, Large plant response rating (crabgrass, large; [7]): 95
- Crabgrass, Large plant response rating (crabgrass, large; [8]): 95
- Plant response rating, Crabgrass, Large (crabgrass, large; [9]): 98
- Plant response rating (scale of 0 to 100), Crabgrass, Large (crabgrass, large; Preemergence, 250 g ai/ha): 98
- Plant response rating, Oat, Wild (oat, wild; 31 g ai/ha, scale 0 to 100 (0 no effect, 100 complete control)): 0
- Plant response rating, Oat, Wild (oat, wild; 62 g ai/ha, scale 0 (no effect) to 100 (complete control)): 0
- Plant response rating, Oat, Wild (oat, wild; 125 g ai/ha, scale 0 to 100 (0 no effect, 100 complete control)): 0
- Plant response rating, Oat, Wild (oat, wild; 250 g ai/ha, scale 0 to 100 (0 no effect, 100 complete control)): 5
- Plant response rating, Velvetleaf (velvetleaf; [3]): 0
- Plant response rating, Velvetleaf (velvetleaf; [4]): 55
- Plant response rating, Velvetleaf (velvetleaf; [5]): 50
- Plant response rating, Velvetleaf (velvetleaf; [6]): 55
- Velvetleaf plant response rating (velvetleaf; [8]): 35
- Plant response rating, Velvetleaf (velvetleaf; [9]): 40
- Plant response rating, Pigweed (pigweed; [10]): 40
- Plant response rating, Pigweed (pigweed; [11]): 70
- Plant response rating, Pigweed (pigweed; [12]): 30
- Pigweed plant response rating (pigweed; [13]): 60
- Plant response rating, Barnyardgrass (barnyardgrass [2]; [10]): 90
- Plant response rating, Barnyardgrass (barnyardgrass [2]; [11]): 90
- Plant response rating, Barnyardgrass (barnyardgrass [2]; [12]): 90
- Barnyardgrass plant response rating (barnyardgrass [2]; [13]): 90
